Results: PMC10745491 (Frontiers in Cellular Neuroscience, 2023)
Read-outs that look alike come from different tables or passages of the source. Peptide text beside a SMILES is read from it.

Tests used:
rat V1aR = rat V1aR (Rattus norvegicus, UniProt P30560); experiment: cell-based; assay type: cell-based
A1 = A1 (Homo sapiens, UniProt P30542); experiment: radioligand binding assay
AT1 = AT1 (Homo sapiens, UniProt P30556); assay type: binding
N muscle-type = N muscle-type (Homo sapiens, UniProt P02708+P07510+Q07001); assay type: binding
PCP = experiment: radioligand binding assay; set-up: species or system human
FP = FP (Homo sapiens, UniProt P43088); assay type: binding
5-HT2A = 5-HT2A (Homo sapiens, UniProt P28223); experiment: radioligand binding assay
5-HT2B = 5-HT2B (Homo sapiens, UniProt P41595); experiment: radioligand binding assay
Ca2+ channel = assay type: binding, human
Na+ channel = experiment: radioligand binding assay; set-up: species or system human
PDE5 = PDE5 (Homo sapiens, UniProt O76074); assay type: biochemical
MAO-A = MAO-A (Homo sapiens, UniProt P21397); assay type: biochemical
rat OXTR [1] = target: T1, rat OXTR (Rattus norvegicus, UniProt P70536)
human OXTR [2] = target: T2, human OXTR (Homo sapiens, UniProt P30559)
[3] = rat
[4] = test system: PFC layer 5 pyramidal neurons; conditions: rat, in vivo
CPA rats = conditions: rat, in vivo; for social interaction time (Fig. 5O): sc
mPFC transcriptome = conditions: rat, in vivo, 0.07 mg/kg
alpha 2A = alpha 2A (Homo sapiens, UniProt P08913)
D1 = D1 (Homo sapiens, UniProt P21728)
H1 = H1 (Homo sapiens, UniProt P35367)
H3 = H3 (Homo sapiens, UniProt Q9Y5N1)
M2 = M2 (Homo sapiens, UniProt P08172)
kappa = kappa (Homo sapiens, UniProt P41145)
mu = mu (Homo sapiens, UniProt P35372)
PPARgamma = PPARgamma (Homo sapiens, UniProt P37231)
5-HT3 = 5-HT3 (Homo sapiens, UniProt P46098)
5-HT transporter = 5-HT transporter (Homo sapiens, UniProt P31645)
ACE = ACE (Homo sapiens, UniProt P12821)
GSK3alpha = GSK3alpha (Homo sapiens, UniProt P49840)
MAO-B enzyme = MAO-B enzyme (Homo sapiens, UniProt P27338)
[5] = target: xanthine oxidase / superoxide O2-scavenging (Bos taurus, UniProt P80457)
rat OXTR [6] = target: T1, rat OXTR; experiment: cell-based
human OXTR [7] = target: T2, human OXTR; experiment: cell-based
human V1aR = human V1aR (Homo sapiens, UniProt P37288); experiment: cell-based

Chain of GSK3alpha (P49840 whole entry): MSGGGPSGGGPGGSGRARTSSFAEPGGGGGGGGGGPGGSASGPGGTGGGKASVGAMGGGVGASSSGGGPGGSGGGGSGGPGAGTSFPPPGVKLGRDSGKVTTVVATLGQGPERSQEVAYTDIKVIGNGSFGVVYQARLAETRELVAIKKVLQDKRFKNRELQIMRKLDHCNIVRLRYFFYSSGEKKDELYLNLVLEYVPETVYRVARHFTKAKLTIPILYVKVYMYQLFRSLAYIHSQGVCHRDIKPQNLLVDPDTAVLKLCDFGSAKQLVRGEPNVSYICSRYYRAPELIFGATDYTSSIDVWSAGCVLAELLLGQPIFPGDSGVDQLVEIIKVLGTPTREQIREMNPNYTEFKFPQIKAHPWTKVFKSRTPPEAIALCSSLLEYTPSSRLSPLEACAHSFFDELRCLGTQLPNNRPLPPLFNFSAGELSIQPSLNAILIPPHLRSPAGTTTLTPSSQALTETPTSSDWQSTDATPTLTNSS
Chain of FP (P43088 whole entry): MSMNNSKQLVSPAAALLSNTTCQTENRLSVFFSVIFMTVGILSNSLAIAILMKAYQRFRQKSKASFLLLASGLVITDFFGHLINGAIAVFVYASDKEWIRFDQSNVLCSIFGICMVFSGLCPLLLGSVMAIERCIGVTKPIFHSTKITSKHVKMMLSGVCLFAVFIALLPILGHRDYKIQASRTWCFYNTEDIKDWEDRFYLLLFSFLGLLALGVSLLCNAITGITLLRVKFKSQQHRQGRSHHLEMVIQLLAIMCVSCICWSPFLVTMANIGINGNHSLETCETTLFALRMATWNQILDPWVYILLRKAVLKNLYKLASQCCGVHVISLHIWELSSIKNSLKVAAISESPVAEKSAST
Chain of alpha 2A (P08913 whole entry): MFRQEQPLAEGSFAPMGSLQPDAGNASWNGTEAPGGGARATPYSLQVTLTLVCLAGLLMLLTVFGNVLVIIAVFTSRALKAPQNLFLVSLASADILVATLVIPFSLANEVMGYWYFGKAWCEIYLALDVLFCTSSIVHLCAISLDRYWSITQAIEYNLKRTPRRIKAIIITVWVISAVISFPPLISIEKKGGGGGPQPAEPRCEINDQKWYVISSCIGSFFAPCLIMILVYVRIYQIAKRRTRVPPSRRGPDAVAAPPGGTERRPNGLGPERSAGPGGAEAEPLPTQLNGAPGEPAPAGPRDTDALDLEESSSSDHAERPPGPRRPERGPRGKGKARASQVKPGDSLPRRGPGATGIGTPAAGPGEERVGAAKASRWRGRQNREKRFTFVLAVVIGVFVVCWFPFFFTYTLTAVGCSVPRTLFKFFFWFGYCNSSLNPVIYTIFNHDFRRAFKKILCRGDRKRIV
Chain of AT1 (P30556 whole entry): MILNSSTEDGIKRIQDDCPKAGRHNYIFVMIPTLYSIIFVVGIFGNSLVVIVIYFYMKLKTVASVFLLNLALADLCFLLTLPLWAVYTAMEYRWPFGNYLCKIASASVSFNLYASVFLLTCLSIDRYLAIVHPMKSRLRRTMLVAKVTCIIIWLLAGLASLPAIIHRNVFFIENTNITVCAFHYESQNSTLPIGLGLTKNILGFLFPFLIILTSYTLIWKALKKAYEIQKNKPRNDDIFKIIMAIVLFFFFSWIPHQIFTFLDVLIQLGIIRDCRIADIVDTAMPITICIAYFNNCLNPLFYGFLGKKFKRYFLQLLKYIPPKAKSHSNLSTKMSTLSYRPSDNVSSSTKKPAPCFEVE
Chain of H1 (P35367 whole entry): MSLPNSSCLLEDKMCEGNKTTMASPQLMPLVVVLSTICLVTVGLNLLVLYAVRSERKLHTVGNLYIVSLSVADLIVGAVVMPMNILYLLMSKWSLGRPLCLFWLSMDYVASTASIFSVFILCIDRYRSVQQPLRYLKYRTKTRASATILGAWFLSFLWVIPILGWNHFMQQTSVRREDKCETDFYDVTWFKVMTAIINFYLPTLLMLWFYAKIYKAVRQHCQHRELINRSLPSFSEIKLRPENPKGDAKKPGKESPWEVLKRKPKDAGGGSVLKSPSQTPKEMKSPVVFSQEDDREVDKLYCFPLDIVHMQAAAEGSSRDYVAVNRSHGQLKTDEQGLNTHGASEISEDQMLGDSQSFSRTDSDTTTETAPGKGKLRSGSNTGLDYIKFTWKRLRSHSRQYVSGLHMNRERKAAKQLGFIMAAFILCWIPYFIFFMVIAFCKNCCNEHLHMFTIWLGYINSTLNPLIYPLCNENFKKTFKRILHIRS
Chain of 5-HT3 (P46098 24-478): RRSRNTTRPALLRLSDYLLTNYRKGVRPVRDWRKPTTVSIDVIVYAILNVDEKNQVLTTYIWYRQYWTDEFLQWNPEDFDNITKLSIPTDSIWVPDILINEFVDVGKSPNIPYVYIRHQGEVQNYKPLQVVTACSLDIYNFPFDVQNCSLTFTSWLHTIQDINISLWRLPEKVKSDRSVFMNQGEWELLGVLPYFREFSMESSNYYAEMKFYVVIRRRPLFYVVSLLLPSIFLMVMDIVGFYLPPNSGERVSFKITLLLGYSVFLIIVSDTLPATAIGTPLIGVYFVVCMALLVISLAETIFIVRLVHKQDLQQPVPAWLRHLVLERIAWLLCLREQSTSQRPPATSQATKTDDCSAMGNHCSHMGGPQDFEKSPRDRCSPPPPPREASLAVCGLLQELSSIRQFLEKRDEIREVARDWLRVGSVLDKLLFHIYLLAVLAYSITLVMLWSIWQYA
Chain of xanthine oxidase / superoxide O2-scavenging (P80457 2-1332): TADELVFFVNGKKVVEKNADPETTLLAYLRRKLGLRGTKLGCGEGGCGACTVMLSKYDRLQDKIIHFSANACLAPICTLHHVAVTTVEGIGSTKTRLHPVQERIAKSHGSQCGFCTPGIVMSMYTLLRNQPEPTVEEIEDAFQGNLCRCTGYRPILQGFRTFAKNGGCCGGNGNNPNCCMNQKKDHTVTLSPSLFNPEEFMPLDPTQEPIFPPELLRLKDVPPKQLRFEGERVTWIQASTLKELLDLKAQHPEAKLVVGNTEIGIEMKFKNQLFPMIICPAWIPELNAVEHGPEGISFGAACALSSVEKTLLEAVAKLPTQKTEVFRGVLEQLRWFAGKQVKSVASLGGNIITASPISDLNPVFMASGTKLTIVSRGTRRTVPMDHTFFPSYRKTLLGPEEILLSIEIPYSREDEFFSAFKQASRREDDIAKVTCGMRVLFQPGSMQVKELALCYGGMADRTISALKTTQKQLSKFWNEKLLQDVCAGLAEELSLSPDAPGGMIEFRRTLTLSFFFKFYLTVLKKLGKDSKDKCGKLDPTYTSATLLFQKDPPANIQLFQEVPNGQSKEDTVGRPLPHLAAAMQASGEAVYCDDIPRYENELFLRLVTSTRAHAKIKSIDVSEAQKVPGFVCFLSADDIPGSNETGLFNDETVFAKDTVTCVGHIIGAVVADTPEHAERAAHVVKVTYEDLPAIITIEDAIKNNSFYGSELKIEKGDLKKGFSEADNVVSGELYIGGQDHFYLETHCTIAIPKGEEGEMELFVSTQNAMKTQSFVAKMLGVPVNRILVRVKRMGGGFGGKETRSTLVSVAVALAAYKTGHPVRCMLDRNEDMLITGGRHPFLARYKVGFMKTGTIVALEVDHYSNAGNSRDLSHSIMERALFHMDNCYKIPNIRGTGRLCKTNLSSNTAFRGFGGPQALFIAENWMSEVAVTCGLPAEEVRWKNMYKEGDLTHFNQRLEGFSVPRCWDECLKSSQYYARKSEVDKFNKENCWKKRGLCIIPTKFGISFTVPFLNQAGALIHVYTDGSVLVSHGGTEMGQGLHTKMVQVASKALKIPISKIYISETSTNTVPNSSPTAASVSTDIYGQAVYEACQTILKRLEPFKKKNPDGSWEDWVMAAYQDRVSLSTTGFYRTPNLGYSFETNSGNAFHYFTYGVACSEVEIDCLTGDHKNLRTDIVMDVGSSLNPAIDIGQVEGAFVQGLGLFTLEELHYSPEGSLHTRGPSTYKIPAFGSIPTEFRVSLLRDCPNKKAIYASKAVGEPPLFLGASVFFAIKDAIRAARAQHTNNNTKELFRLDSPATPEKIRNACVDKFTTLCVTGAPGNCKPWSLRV
Chain of kappa (P41145 whole entry): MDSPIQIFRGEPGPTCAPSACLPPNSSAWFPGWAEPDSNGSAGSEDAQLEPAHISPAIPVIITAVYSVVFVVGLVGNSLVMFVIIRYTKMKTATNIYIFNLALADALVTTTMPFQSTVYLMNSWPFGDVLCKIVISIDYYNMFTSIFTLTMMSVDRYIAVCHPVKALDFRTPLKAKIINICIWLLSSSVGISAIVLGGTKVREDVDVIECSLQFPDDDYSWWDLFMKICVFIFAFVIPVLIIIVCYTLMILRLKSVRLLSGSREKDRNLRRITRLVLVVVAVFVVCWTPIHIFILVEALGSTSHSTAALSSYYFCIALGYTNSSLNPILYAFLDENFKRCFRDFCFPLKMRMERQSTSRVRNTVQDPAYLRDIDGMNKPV
Chain of D1 (P21728 whole entry): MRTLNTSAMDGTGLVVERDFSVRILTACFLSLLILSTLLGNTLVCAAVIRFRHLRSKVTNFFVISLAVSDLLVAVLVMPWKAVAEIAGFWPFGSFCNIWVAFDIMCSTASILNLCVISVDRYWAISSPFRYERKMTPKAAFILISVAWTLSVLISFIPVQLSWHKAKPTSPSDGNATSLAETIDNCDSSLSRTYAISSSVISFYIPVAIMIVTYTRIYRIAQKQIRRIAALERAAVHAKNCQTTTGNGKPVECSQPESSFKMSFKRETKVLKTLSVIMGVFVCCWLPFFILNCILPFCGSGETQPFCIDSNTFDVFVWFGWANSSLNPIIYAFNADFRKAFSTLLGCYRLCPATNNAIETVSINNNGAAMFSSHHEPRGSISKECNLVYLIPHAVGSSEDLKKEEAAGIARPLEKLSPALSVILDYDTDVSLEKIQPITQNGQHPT

CC[C@H](C)[C@@H]1NC(=O)[C@H](Cc2ccc(O)cc2)NC(=O)CNC(=O)CC[C@@H](C(=O)N2CC(F)C[C@H]2C(=O)N[C@@H](CC(C)C)C(=O)NCC(N)=O)NC(=O)[C@H](CC(N)=O)NC(=O)[C@H](CCC(N)=O)NC1=O (stereo partly drawn) [RO6958375] (HELM PEPTIDE1{G.Y.I.Q.N.E.[O=C([C@@H]1CC(F)CN1[*:1])[*:2]].L.G.[am]}$PEPTIDE1,PEPTIDE1,1:R1-6:R3$$$V2.0)
EC50 (rat V1aR): > 27000 nM
activity on rat V1aR (inactive up to) (rat V1aR): > 1 µM
% Inhibition of Control Specific Binding (A1): -4%
Mean / % of Control Specific Binding (A1): 104.1%
% Inhibition of Control Specific Binding (AT1): -1%
Mean / % of Control Specific Binding (AT1): 101.4%
% Inhibition of Control Specific Binding (N muscle-type): 5%
Mean / % of Control Specific Binding (N muscle-type): 94.7%
% Inhibition of Control Specific Binding (PCP): -6%
Mean / % of Control Specific Binding (PCP): 105.5%
% Inhibition of Control Specific Binding (FP): 3%
Mean / % of Control Specific Binding (FP): 96.9%
% Inhibition of Control Specific Binding (5-HT2A): 9%
Mean / % of Control Specific Binding (5-HT2A): 90.6%
% Inhibition of Control Specific Binding (5-HT2B): -2%
Mean / % of Control Specific Binding (5-HT2B): 102%
% Inhibition of Control Specific Binding (Ca2+ channel): -36%
Mean / % of Control Specific Binding (Ca2+ channel): 136%
% Inhibition of Control Specific Binding (Na+ channel): 10%
Mean / % of Control Specific Binding (Na+ channel): 89.6%
% Inhibition of Control Specific Binding (PDE5): -21%
Mean / % of Control Specific Binding (PDE5): 121.4%
% Inhibition of Control Specific Binding (MAO-A): -15%
Mean / % of Control Specific Binding (MAO-A): 115%
agonist efficacy and potency relative to oxytocin on rat OXTR (rat OXTR [1]): full OXTR agonist and equipotent to oxytocin
activation of human OXTR (human OXTR [2]): fully activated
plasma protein binding [3]: negligible
current-membrane voltage relationship and input resistance after CPA [4]: normalized
differences in passive membrane properties between control and CPA rats [4]: not observed
effect on number of evoked action potentials after CPA [4]: only partially recovered
effect on rheobase after CPA [4]: fully restored
AUC of current-voltage (IV) curve (Fig. 5L) ([4]; 0.07 mg/kg): 36.9 ± 4.56
AUC of number of action potentials per current step (Fig. 5J) ([4]; sc, 0.07 mg/kg): 9.79 ± 2.74
input resistance (Rin) at 80 pA (Fig. 5M) ([4]; sc, 0.07 mg/kg): 180.7 MΩ
membrane capacitance, Cm (Fig. 5E) ([4]; sc, 0.07 mg/kg): 65.11 pF
membrane resistance, Rm (Fig. 5D) ([4]; sc, 0.07 mg/kg): 77.59 MΩ
resting membrane potential, Vrest (Fig. 5C) ([4]; sc, 0.07 mg/kg): -66.87 mV
rheobase (Fig. 5K) ([4]; sc, 0.07 mg/kg): 209
social deficits observed in CPA rats (CPA rats): not evident
social interaction time (Fig. 5O) (CPA rats; 0.001 mg/kg): 198.6 s
social interaction time (Fig. 5O) (CPA rats; 0.07 mg/kg): 190.2 s
CPA-induced transcriptomic changes (mPFC transcriptome): partially prevented
% Inhibition of Control Specific Binding (alpha 2A): -7%
Mean / % of Control Specific Binding (alpha 2A): 106.7%
% Inhibition of Control Specific Binding (D1): -2%
Mean / % of Control Specific Binding (D1): 102.2%
% Inhibition of Control Specific Binding (H1): -1%
Mean / % of Control Specific Binding (H1): 100.9%
% Inhibition of Control Specific Binding (H3): -6%
Mean / % of Control Specific Binding (H3): 105.9%
% Inhibition of Control Specific Binding (M2): -14%
Mean / % of Control Specific Binding (M2): 113.8%
% Inhibition of Control Specific Binding (kappa): -13%
Mean / % of Control Specific Binding (kappa): 112.7%
% Inhibition of Control Specific Binding (mu): 2%
Mean / % of Control Specific Binding (mu): 98.2%
% Inhibition of Control Specific Binding (PPARgamma): -3%
Mean / % of Control Specific Binding (PPARgamma): 103.1%
% Inhibition of Control Specific Binding (5-HT3): 20%
Mean / % of Control Specific Binding (5-HT3): 80%
% Inhibition of Control Specific Binding (sigma): 4%
Mean / % of Control Specific Binding (sigma): 96.2%
% Inhibition of Control Specific Binding (5-HT transporter): -4%
Mean / % of Control Specific Binding (5-HT transporter): 103.5%
% Inhibition of Control Specific Binding (ACE): -28%
Mean / % of Control Specific Binding (ACE): 128.2%
% Inhibition of Control Specific Binding (GSK3alpha): -5%
Mean / % of Control Specific Binding (GSK3alpha): 105.2%
% Inhibition of Control Specific Binding (MAO-B enzyme): -14%
Mean / % of Control Specific Binding (MAO-B enzyme): 113.8%
% Inhibition of Control Specific Binding [5]: 8%
Mean / % of Control Specific Binding [5]: 92.1%
EC50 (rat OXTR [6]): 0.011 nM
EC50 (human OXTR [7]): 0.025 nM
EC50 (human V1aR): > 27000 nM
